Data: patent US4774248A, “Methods of treating depression and depressive states using 5-phenyl-1,4,5,6-tetrahydropyrimidine derivatives” (priority 1985, dated 1988)
Entries after “also recorded” stand apart in the source; their conditions may differ.

Key:
male mice = assay: Acute toxicity, intraperitoneal (LD0, LD30, LD60, LD100); type: in vivo
Description: (§1) The results of toxicological and neuropsychopharmacological tests which were carried out with the products according to the invention have been summarized below. In these tests, solutions of the said products in distilled water were administered intraperitoneally in a volume of 20 ml/kg to male mice and in a volume of 5 ml/kg to male rats.

mice [1] = assay: Overall behavior and reactivities in mice; type: in vivo; conditions: i.p.
Outline: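 Male mice (20 ml/kg) and male rats (5 ml/kg) dosed intraperitoneally with compound in distilled water.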

[2] = test system: central nervous system (CNS); assay: Neuropsychopharmacological profile (conclusions of the tests); type: in vivo, mice and rats
Description: as §1

anesthetized dogs = assay: Cardiovascular study in anesthetized dogs; type: in vivo; conditions: for effects of isoprenaline: isoprenaline 10 μg/kg; for hypertension induced by norepinephrine: norepinephrine 2 μg/kg
Description: Groups of 2 adult dogs (each weighing 10 to 18 kg), anesthetized with nembutal, receive each test product (i) by intraduodenal administration at successive doses of 0.1 mg/kg, 0.5 mg/kg, 1 mg/kg, 2.5 mg/kg, 5 mg/kb, 10 mg/kg and 20 mg/kg, and then (ii) if appropriate, by intravenous administration at a dose of 10 mg/kg. The effects of 10 μg/kg of isoprenaline and/or 2 μg/kg of norepinephrine after the intraduodenal administration of a cumulative dose of 39.1 mg/kg are also assessed.
The following are measured: the total arterial blood pressure, the diastolic arterial blood pressure, the heart rate, the blood flows through the femoral and cerebral arteries and saphenous veins, the rectal temperature, the skin temperature and the pressure of the gases (essentially O2) dissolved in the arterial blood.

pH of aqueous solution = type: physicochemical
Description: The tests were carried out in solution in water at pH 4.0-5.5. The pH of the aqueous solution of CRL 41 378 varies according to the concentration: it is 4.0 at a concentration of 50 g/l, 4.5 at 12.5 g/l, 5.0 at 0.8 g/l and 5.5 at CRL 41 378 concentrations less than or equal to 0.2 g/l.

[3] = test system: stereotypies induced by amphetamine; assay: Interaction with amphetamine (rats); type: in vivo; conditions: i.p.; amphetamine 2 mg/kg
Description: as §1
(§2) Amphetamine (2 mg/kg) is injected intraperitoneally into groups of 6 rats 30 minutes after the administration of CRL 41 378.

[4] = test system: stereotypies induced by amphetamine; assay: Interaction with amphetamine (mice as printed); type: in vivo; conditions: in mice (so in the source), i.p.
Description: as §2
Using the procedures given above, the following results were obtained with a solution of CRL 41 382 in water at pH 6.

mice [5] = assay: Behavioral despair (forced immersion); type: in vivo; conditions: mice which have been forcibly immersed, i.p.; hydrochloride
Description: as §1
Half an hour after they have received CRL 41 378, groups of 6 mice are placed in a beaker filled with water to a height of 6 cm. The total period of immobility between the 2nd and 6th minutes following immersion is noted.

CC(=O)N1C=NCC(c2ccccc2)C1.Cl (stereo not shown) [CRL 41 378, 1-acetyl-5-phenyl-1,4,5,6-tetrahydropyrimidine hydrochloride]
toxic signs in the animals treated (male mice; 256 mg/kg i.p.): all the animals treated exhibit dyspnea, substantial salivation and convulsions 10 minutes after administration | LD0 (maximum non-lethal dose) (male mice; intraperitoneal): greater than 256 mg/kg | overall behavior and reactivities (mice [1]; 1 mg/kg): no distinct modification of the behavior and reactivities compared with the control animals | overall behavior and reactivities (mice [1]; 4 mg/kg): moderate mydriasis for 3 h, the maximum intensity being reached 1 h after administration | overall behavior and reactivities (mice [1]; 16 mg/kg, hydrochloride): moderate salivation 1 h after administration; also recorded: moderate hypothermia; also recorded: moderate mydriasis 1 h after administration | overall behavior and reactivities (mice [1]; 64 mg/kg, hydrochloride): sedation for 3 h; also recorded: a decrease in the breathing rate appearing between T+0.5 h and T+1 h after administration; also recorded: moderate hypothermia; also recorded: an increase in the reactivity to touch and vasodilation of the paws for 0.5 h; also recorded: salivation appearing between T+1 h and T+2 h after administration; also recorded: mydriasis for 3 h | lethal effects of the various convulsants studied ([2]; electric shock, hypobaric hypoxia, asphyxiant anoxia): aggravates the lethal effects of the various convulsants studied (electric shock, hypobaric hypoxia, asphyxiant anoxia) | antidepressant effects ([2]; i.p.): antidepressant effects appearing as from the lowest doses | peripheral anticholinergic activity ([2]; i.p.): absence of peripheral anticholinergic activity | stimulant effects ([2]; i.p.): absence of stimulant effects on the CNS | peripheral α-adrenergic stimulant effects ([2]; i.p., hydrochloride): peripheral α-adrenergic stimulant effects appearing at high doses; also recorded: an α1 stimulation component represented by salivation and mydriasis (in mice and rats) and piloerection (in rats); also recorded: moderate hyperthermia in mice; also recorded: peripheral vasodilation (tail, paws and snout) in mice and rats | sedative effects ([2]; i.p., hydrochloride): sedative effects appearing at high doses; also recorded: sedation in mice | overall neuropsychopharmacological profile ([2]; summary, hydrochloride): an antidepressant exhibiting sedative effects at high doses; also recorded: resembles β-adrenergic stimulants | rectal temperature (anesthetized dogs): increases the rectal temperature | skin temperature (anesthetized dogs): does not cause a distinct modification of the skin temperature | arterial blood pressure (anesthetized dogs; intraduodenal): no effect on the arterial blood pressure by intraduodenal administration | arterial blood pressure (anesthetized dogs; intravenous): hypotensive by intravenous administration | effects of isoprenaline (anesthetized dogs): decreases the effects of isoprenaline on the heart rate | hypertension induced by norepinephrine (anesthetized dogs): decreases the hypertension induced by norepinephrine | pH of the aqueous solution (pH of aqueous solution; 0.8 g/l): 5.0 | pH of the aqueous solution (pH of aqueous solution; 12.5 g/l): 4.5 | pH of the aqueous solution (pH of aqueous solution; 50 g/l): 4.0 | pH of the aqueous solution (pH of aqueous solution; less than or equal to 0.2 g/l): 5.5 | action on stereotypies induced by amphetamine [3]: at the highest dose used (32 mg/kg), CRL 41 378 potentiates the stereotypies induced by amphetamine

Cl.OC1(c2ccccc2)CN=CNC1 (stereo not shown) [CRL 41 382, 5-hydroxy-5-phenyl-1,4,5,6-tetrahydropyrimidine hydrochloride]
LD0 (maximum non-lethal dose) (male mice; intraperitoneal): greater than 256 mg/kg | LD60 (male mice; intraperitoneal): ~500 mg/kg | overall behavior and reactivities (mice [1]; 1 mg/kg, 4 mg/kg and 16 mg/kg): no distinct modification of the behavior and reactivities compared with the control animals | overall behavior and reactivities (mice [1]; 64 mg/kg, hydrochloride): sedation for 1 h; also recorded: a decrease in the reactivity to touch and the fear reaction for 0.5 h | antidepressant effects ([2]; i.p.): antidepressant effects appearing as from the lowest doses used | peripheral anticholinergic activity ([2]; i.p.): absence of peripheral anticholinergic activity | sedative effects ([2]; i.p.): sedative effects appearing transiently at the highest doses used (with no detectable decrease in the motor activity) | stimulant effects ([2]; i.p., hydrochloride): absence of any motor stimulation; also recorded: absence of stimulant effects | rectal temperature (anesthetized dogs): increases the rectal temperature | skin temperature (anesthetized dogs): decreases the blood flows through the femoral and vertebral arteries and also the skin temperature | α-adrenergic stimulant effect (anesthetized dogs): seems to have an α-adrenergic stimulant effect | arterial blood pressure (anesthetized dogs; intraduodenal): hypertensive | heart rate (anesthetized dogs; intraduodenal): practically no effect on the heart rate | arterial blood pressure (anesthetized dogs; intravenous): hypotensive | heart rate (anesthetized dogs; intravenous): bradycardic | effects of isoprenaline (anesthetized dogs): does not modify the effects of isoprenaline | hypertension induced by norepinephrine (anesthetized dogs): increases the hypertension caused by norepinephrine | action on stereotypies induced by amphetamine [4]: practically no modification of the stereotypies induced by amphetamine | period of immobility (mice [5]): does not modify the period of immobility; also recorded: absence of antagonism of the immobility due to "despair"
